According to paper PMC9495004, “In Vitro Biological Activity of Natural Products from the Endophytic Fungus Paraboeremia selaginellae against Toxoplasma gondii” (Antibiotics, 2022):
Values after ≈ are worked out from the molar mass of the structure shown. Like-named read-outs stand apart in the source and are kept apart here.

What was measured:
T. gondii strain ME49 = experiment: T. gondii proliferation assay (3H-uracil incorporation); format: cell-based, Toxoplasma gondii
[1] = MTT cell viability assay against Hs27 cells; format: cell-based; settings: human, Hs27 fibroblast cells, >100 µM indicates no activity, read-out: CC50 against human fibroblasts Hs27
Description: Figure 4 Effect of the natural products on the metabolic activity of Hs27 cells via MTT assay. Hs27 cells were plated in 96-well plates and grown to confluence prior to incubation at 37 °C for 24 h with the natural products in the concentration range of […]. The cultures were incubated with 10 μL of the 12 mM MTT stock solution for approximately 4 h. Afterwards, 100 μL of SDS dissolved in HCl was added to each well and incubated again for 4 h at 37 °C. Finally, the absorbance was measured at 570 nm by spectrophotometry. Values shown in (A–F) represent the means of three independent experiments each done in duplicate (n = 6) ± SEM. Cytotoxicity in Hs27 cells of NK-A 17e233 (A); 1,2-benzenediol, 3-(4-hydroxy-2-methoxy-6-methylphenoxy)-5-methyl-(ACI) (B); cyperin (C); ES-242-1 (D); ES-242-3 (E); 5S,6S-phomalactone (F).
The 3-[4,5-dimethylthiazole-2-yl]-2,5-diphenyltetrazolium bromide (MTT) test was used to assess cell viability of the isolated active compounds against Hs27 cells. The MTT assay is a colorimetric reaction based on the enzymatic reduction of MTT to MTT-formazan, which is catalyzed by mitochondrial succinate dehydrogenase.
In brief, Hs27 cells were seeded 96-well plates in a monolayer in Iscove’s modified Dulbecco’s medium (Gibco–Thermo Fisher Scientific, Braunschweig, Germany) and incubated at 37 °C with different concentrations of the tested natural products (1.56, 3,12, 6.25, 12,5, 25, 50, 100 µM) in the culture media. Staurosporine ([…], 0.25, 0.5, 1 µM), a well-known cytotoxicity-inducing kinase inhibitor [40], untreated Hs27 cells, and DMSO were used as controls. After 24 h, the medium of the culture was removed and replaced with 100 μL of DMEM without red phenol (Gibco–Thermo Fisher Scientific, Braunschweig, Germany) plus 10% heat-inactivated fetal bovine serum (Invitrogen, Karlsruhe, Germany), and […] 2-mercaptoethanol (Gibco–Thermo Fisher Scientific, Braunschweig, Germany). Afterwards, the 12 mM MTT solution was added to each well according to the manufacturer’s instruction (Vybrant MTT Cell Proliferation Assay Kit, Thermo Fisher Scientific, Braunschweig, Germany). The OD value of each well was assayed at the wavelength of 570 nm on a microplate reader (TECAN Sunrise, Männedorf, Switzerland). The 50% cytotoxic concentration (CC50 values) of the tested natural products on Hs27 cells was calculated and all data were analyzed using Prism GraphPad version 9.2.0 software.

[2] = test system: THP-1 (human monocytic leukemia cell line); experiment: Resazurin cytotoxicity assay, THP-1; format: cell-based; settings: for IC50: Homo sapiens, read-out: Mean IC50 THP1
Description: (§1) Figure 5 Effect of the natural products on the viability of THP-1, Huh-7, and HEK-293 cells. Cytotoxic effect of NK-A17e233 (A); 1,2-benzenediol,3-(4-hydroxy-2-methoxy-6-methylphenoxy)-5-methyl-(ACI) (B); cyperin (C); ES-242-1 (D); ES-242-3 (E); 5S,6S-phomalactone (F) against the human cell lines THP-1, Huh-7, and HEK-293 as determined by resazurin assay. 100% growth control DMSO, 0% growth control cycloheximide. Values represent the means of triplicates ± SEM.
(§2) The cytotoxicity study was carried out using the THP-1 (human monocytic leukemia cell line), Huh-7 (Human liver carcinoma cell line), and HEK293 (human embryonic kidney cell line) cell lines as described before. The THP-1 cells were cultured using RPMI 1640 medium containing 2 mM L-glutamine and supplemented with 10% fetal calf serum (FCS) and 1% sodium pyruvate. Huh-7 cells were cultured using a 1:1 mixture of RPMI 1640 medium containing 2 mM L-glutamine and 10% FCS medium and DMEM containing 10% FCS and 1% sodium pyruvate. The HEK-293 cells were cultured with DMEM including 2 mM L-glutamine and supplemented with 1% NE amino acids, 1% 1.0 mM sodium pyruvate and 10% FCS. All three cell lines were then incubated at 37 °C in an atmosphere of 5% CO2 under humid conditions for 2 weeks while renewing the medium twice weekly. Subsequently, the cells were suspended and adjusted to a density of 2 × 10^5 cells/mL. In a 96-well flat-bottom microtiter plate, the cells were adjusted to a total volume of 100 μL containing 2-fold serial dilutions of the tested compounds A–F ranging from 100 to 1.56 μM. Cycloheximide (4, 2, 1, 0.5, 0.25, 0.13, 0.06, 0.03 µg/mL) was used as a positive control. After an incubation time of 48 h at 37 °C in an atmosphere of 5% CO2 under humid conditions, 10 μL resazurin solution (100 μg/mL) was added to each well and incubated for another 4 h. The fluorescence was then quantified using a Tecan Infinite 200pro microplate reader (excitation 540 nm, emission 590 nm). The residual growth was calculated relative to non-inoculated conditions (0% growth) and controls treated with DMSO (100% growth).

[3] = test system: Huh-7 (Human liver carcinoma cell line); experiment: Resazurin cytotoxicity assay, Huh-7; format: cell-based; settings: for IC50: Homo sapiens, read-out: Mean IC50 Huh-7
Description: as §1, §2

[4] = test system: HEK293 (human embryonic kidney cell line); experiment: Resazurin cytotoxicity assay, HEK-293; format: cell-based; settings: for IC50: Homo sapiens, read-out: Mean IC50 HEK-293
Description: as §1, §2

S. aureus ATCC 700699 = experiment: Minimal inhibitory concentration assay (BacTiter Glo), S. aureus; format: cell-based; settings: Staphylococcus aureus, read-out: MIC90 S. aureus ATCC 700699
P. aeruginosa ATCC 87110 = experiment: Minimal inhibitory concentration assay (BacTiter Glo), P. aeruginosa; format: cell-based; settings: Pseudomonas aeruginosa, read-out: MIC90 P. aeruginosa ATCC 87110
M. tuberculosis H37Rv = experiment: Minimal inhibitory concentration, resazurin reduction assay, M. tuberculosis; format: cell-based, Mycobacterium tuberculosis; settings: for MIC90: Mycobacterium tuberculosis, H37RV, 120 h, read-out: MIC90 M. tuberculosis H37Rv
Plasmodium falciparum = settings: cited from earlier work
[5] = Toxoplasma gondii, HS27, Hs27 host cells, 48 h treatment, 3H-uracil incorporation, read-out: IC50 against T. gondii strain ME49 (proliferation)
[6] = THP-1, resazurin assay, 48 h, >100 µM indicates no activity
[7] = Huh-7, resazurin assay, 48 h, >100 µM indicates no activity
[8] = HEK293, resazurin assay, 48 h, >100 µM indicates no activity
[9] = ATCC700699, 24 h, >100 µM indicates no activity
[10] = ATCC87110, 24 h, >100 µM indicates no activity
[11] = 5 days, resazurin, >100 µM indicates no activity
[12] = Toxoplasma gondii, HS27, read-out: IC50 against T. gondii strain ME49 (proliferation)
[13] = reported activity, read-out: IC50 against P. falciparum
[14] = resazurin assay, 48 h, >100 µM indicates no activity
[15] = Hs27 host cells, 48 h treatment, 3H-uracil incorporation

Row | Structure (SMILES) | IC50 (T. gondii strain ME49; [5]) [µM] | CC50 at 24 h [1] [µM] | IC50 [2, 6] [µM] | IC50 [3, 7] [µM] | IC50 [4, 8] [µM] | MIC90 (S. aureus ATCC 700699; [9]) [µM] | MIC90 (P. aeruginosa ATCC 87110; [10]) [µM] | MIC90 M. tuberculosis H37Rv (M. tuberculosis H37Rv; [11]) | MIC90 (M. tuberculosis H37Rv; [11]) [µM] | IC50 (T. gondii strain ME49; [12]) [µM] | also measured
1 | COc1cc(O)cc(C)c1Oc1cc(C)cc(O)c1O [B, 3-(4-Hydroxy-2-methoxy-6-methylphenoxy)-5-methylbenzene-1,2-diol] | 19.4 | > 100 | > 100 | > 100 | > 100 | > 100 | > 100 | no inhibitory effect | > 100 |  | IC50 (T. gondii strain ME49; Hs27 host cells, 48 h treatment, 3H-uracil incorporation, read-out: IC50 against T. gondii strain ME49 (proliferation)): 22.2 µM
2 | COc1cc(C)c(Oc2cc(C)cc(O)c2O)c(O)c1 [Compound A, NK-A 17e233] | 5.75 | > 100 | > 100 | > 100 | > 100 | > 100 | > 100 | no inhibitory effect | > 100 |  | 
3 | COc1cc(C)c(Oc2cc(C)cc(O)c2)c(O)c1 [Compound C, cyperin] |  | > 100 |  |  |  |  |  | no inhibitory effect |  | 27.2 | IC50 ([2]; THP-1, 48 h): > 100 µM; IC50 ([3]; Huh-7, 48 h): > 100 µM; IC50 ([4]; HEK293, 48 h): > 100 µM; MIC90 (S. aureus ATCC 700699; ATCC700699, 24 h): > 100 µM; MIC90 (P. aeruginosa ATCC 87110; ATCC87110, 24 h): > 100 µM; MIC90 (M. tuberculosis H37Rv): > 100 µM
4 | COc1cc(OC)c2c(O)c3c(c(-c4c5c(c(O)c6c(OC)cc(OC)cc46)CO[C@@H](C)[C@H]5OC(C)=O)c2c1)C[C@@H](C)OC3 [D, ES-242-1] | 7.38 | > 100 | > 100 | > 100 | 93.8 | > 100 | > 100 |  | 50 (≈ 30.2 µg/mL) |  | IC50 (Plasmodium falciparum; [13]): 8.44 µM
5 | COc1cc(OC)c2c(O)c3c(c(-c4c5c(c(O)c6c(OC)cc(OC)cc46)CO[C@@H](C)[C@H]5OC(C)=O)c2c1)C(O)[C@@H](C)OC3 (stereo partly shown) [E, ES-242-3] | 18 | > 100 | 21.9 | 13 | 16.9 | > 100 | > 100 |  | 100 (≈ 62.1 µg/mL) |  | Mean IC50 THP1 [2, 14]: moderate cytotoxic activity; Mean IC50 Huh-7 [3, 14]: moderate cytotoxic activity; Mean IC50 HEK-293 [4, 14]: moderate cytotoxic activity; IC50 (Plasmodium falciparum; [13]): 13.2 µM
6 | C/C=C/[C@@H]1OC(=O)C=C[C@@H]1O [F, 5S,6S-phomalactone] |  | 81 | 24.3 | 100 | 66.9 | > 100 | 100 (≈ 15.4 µg/mL) | no inhibitory effect |  | 5.13 | Mean IC50 Huh-7 [3, 14]: no or weak cytotoxic effects; Mean IC50 HEK-293 [4, 14]: no or weak cytotoxic effects; MIC90 (M. tuberculosis H37Rv): > 100 µM; IC50 (Plasmodium falciparum; previous report, read-out: IC50 against Plasmodium falciparum): 84.3 µM
7 | Cc1cc(O)c(C)c(=O)o1 [G, methyltriaceticlactone] |  |  |  |  |  | > 100 | > 100 | no inhibitory effect | > 100 |  | IC50 against T. gondii strain ME49 (proliferation) (T. gondii strain ME49; [15]): Not active
8 | CCC(C)CC(C)/C=C(C)/C=C/CC(C)C(O)C(C)/C=C(C)/C=C/C(O)C(C)(C)c1cc(O)c([C@H]2O[C@@H](CO)C[C@@H](O)[C@@H]2O)c(=O)o1 (stereo partly shown) [H, S 39163/F-1] |  |  |  |  |  | > 100 | > 100 | no inhibitory effect | > 100 |  | IC50 against T. gondii strain ME49 (proliferation) (T. gondii strain ME49; [15]): Not active
9 | CCc1nc(N)nc(N)c1-c1ccc(Cl)cc1 [pyrimethamine, reference compound] |  | 44 |  |  |  |  |  |  |  | 0.06 | 
